Format in all cases: physicochemical
Data set [1] can be described thus: Photochromic PMMA cast film: initial coloration density, maximum absorption wavelength and fatigue life in xenon fadeometer (Example 9).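 As to Initial color density: initial color density is an absorbance value so the % unit is wrong.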 The conditions noted are these: PMMA cast film 0.1 mm; for λmax / Initial color density: xenon light; for Initial color density / T1/2: no stabilizer; for T1/2: time for color density to fall to half of initial value, xenon fadeometer. An excerpt: The thickness of the cast film was adjusted to 0.1 mm.
(§1) T1/2 is defined as the time required for the color density to decrease to half of its initial value when the film is exposed to the fadeometer.

A short description of data set [2]: Fatigue life of photochromic PMMA cast film with ultraviolet stabilizer, xenon fadeometer (Examples 11-14). Particulars: PMMA film. As to the method:
One hundred parts by weight of benzene, 10 parts by weight of poly(methyl methacrylate), 0.2 part […] The solution was cast on a slide glass (11.2×3.7 cm) to form a cast film having a thickness of 0.1 mm.
The fatigue life of photochromic film was measured as in Example 9 by a xenon long-life fadeometer (FAL-25AX-HC made by Suga Testing Instrument Co., Ltd.).
Example 11 was repeated except that the fulgimide compound obtained in Example 2 was used instead of fulgimide compound used in Example 11.
Example 11 was repeated except that the fulgimide or fulgide compounds shown in Table 28 were used instead of the fulgimide compounds in Example 11, and Cyasorb UV1084 was used as the ultraviolet stabilizer.

Data set [3] in a line: Durability of poly(allyl diglycol carbonate) lens impregnated with the compound in silicone oil, as in Example 9 (Example 10). The arrangement: Initial color density: unit not given here. The conditions noted are these: silicone oil impregnation; for Initial color density: 1.0×10^-4 mole/g; for T1/2: xenon fadeometer. As to the method:
as §1
The solution was impregnated in the surface of a lens composed of poly(allyl diglycol carbonate) at 200° C. for 1 hour. The concentration of the solution was adjusted to 1.0×10^-4 mole/g.

Setting [4] is: UV stabilizer Cyasorb UV1084, 0.2 part.

Regarding `O=C1OC(=O)C2C1=C(C1CC1)c1cc(Br)sc1C21C2CC3CC(C2)CC1C3` (stereo not drawn) [(7), 2-bromo-4-cyclopropyl-6,7-dihydridospirobenzo[5,6-b]thiophenedicarboxyanhydride-7,2'-tricyclo[3.1.1^3.7]decane], in data set [1], the λmax came out at 529 nm, the Initial color density is given as 1.21% and the T1/2 came to 54 h. In data set [2] (setting [4]), this compound came in with a T1/2 of 220 h.
`N#CCN1C(=O)C2=C(C3CC3)c3ccsc3C3(C4CCC3CC4)C2C1=O` (stereo not drawn) [(2), N-cyanomethyl-4-cyclopropyl-6,7-dihydridospirobenzo[5,6-b]thiophenedicarboxyimido-7,7'-bicyclo[2.2.1]heptane]: the figures for the λmax in data set [3] and in data set [1] were 568 nm and 563 nm, respectively. Further, the Initial color density in data set [3] is on record as 0.71; in data set [1], 0.78%. The T1/2 was 91 h in data set [3]; 89 h in data set [1]; 325 h in data set [2] (UV stabilizer Chimassorb 944, 0.2 part); 385 h in data set [2] (UV stabilizer Cyasorb 3346, 0.2 part); 350 h in data set [2] (setting [4]); 355 h in data set [2] (UV stabilizer Cyasorb UV1084, 0.2 part, listed as Example 2). Moreover, the T1/2 came to 340 h in data set [2] (UV stabilizer Irgastab 2002, 0.2 part); 369 h in data set [2] (UV stabilizer Rylex NBC, 0.2 part); 346 h in data set [2] (UV stabilizer Spinuvex A-36, 0.2 part); 355 h in data set [2] (UV stabilizer Tinuvin 144, 0.2 part); 375 h in data set [2] (UV stabilizer Tinuvin 622, 0.2 part); 373 h in data set [2] (UV stabilizer Tinuvin 765, 0.2 part). For the same compound, the T1/2 in data set [2] (UV stabilizer UV Chek AM101, 0.2 part) turned out to be 336 h; in data set [2] (UV stabilizer UV Chek AM105, 0.2 part) it was 308 h.
Take `CCOC(=O)OCN1C(=O)C2=C(C3CC3c3ccccc3)c3cc(OCC)sc3C3(C4CC5CC(C)(C4)CC3(C)C5)C2C1=O` (stereo not drawn) [(41)]: in data set [1], the λmax was determined as 557 nm, the Initial color density worked out at 0.82% and the T1/2 amounted to 65 h. In data set [2] (setting [4]), this compound had a T1/2 of 263 h.
Take `CCC(C(=O)OCCc1ccc2ccccc2c1)N1C(=O)C2=C(C3CC3)c3ccsc3C3(C4CC5CC(C4)CC3C5)C2C1=O` (stereo not drawn) [(5)]: in data set [1], the λmax is listed as 532 nm, the Initial color density was determined as 0.69% and the T1/2 worked out at 61 h. In data set [2] (setting [4]), this compound displayed a T1/2 of 244 h.
For `O=C(CCCCN1C(=O)C2=C(C3CC3)c3ccsc3C3(C4CC5CC(C4)CC3C5)C2C1=O)OCCc1ccc2ccccc2c1` (stereo not drawn) [(6)], in that order: 549 nm, 0.72%, 57 h and 210 h.
For `O=C1OC(=O)C2C1=C(C1CC1C(F)(F)F)c1sc(Br)cc1C21C2CCC1CC2` (stereo not drawn) [(50)], in that order: 518 nm, 0.90%, 48 h and 200 h.
As for `O=C1OC(=O)C2C1=C(C1CC1)c1c(sc3ccccc13)C21C2CCC1CC2` (stereo not drawn) [(49)], in data set [1], the λmax was determined as 564 nm, the Initial color density stood at 1.15% and the T1/2 worked out at 58 h. The compound further displayed a T1/2 in data set [2] (setting [4]) of 235 h.
As to `Cc1cc2c(n1C)C1(C3CC4CC(F)(C3)CC1(F)C4)C1C(=O)N(C3CCC([N+](=O)[O-])CC3)C(=O)C1=C2C1CC1` (stereo not drawn) [(40)], in data set [3], the λmax is on record as 535 nm, the Initial color density is 0.70 and the T1/2 is 74 h. In addition, in data set [1], the λmax is 532 nm, the Initial color density is 0.77% and the T1/2 was found to be 71 h. Besides, in data set [2] (setting [4]), the T1/2 was 280 h.
Turning to `Cc1cc2c(s1)C1(C3CCC1CC3)C1C(=O)N(C[N+](=O)[O-])C(=O)C1=C2C1CC1` (stereo not drawn) [(8)], in data set [3], the λmax is on record as 578 nm, the Initial color density is 0.63 and the T1/2 is 80 h. In addition, in data set [1], the λmax is given as 571 nm, the Initial color density is 0.69% and the T1/2 was 75 h.
Consider `COC(=O)CN1C(=O)C2=C(C3CC3)c3ccoc3C3(C4CCC3CC4)C2C1=O` (stereo not drawn) [(20)], for which, in data set [3], the λmax is listed as 535 nm, the Initial color density is recorded as 0.73 and the T1/2 is 95 h. In data set [1], this compound returned a λmax of 531 nm, an Initial color density of 0.82% and a T1/2 of 89 h.
As for `CCOc1cc2c(s1)C1(C3CCCC1CCC3)C1C(=O)OC(=O)C1=C2C1CC1` (stereo not drawn) [(55)], in data set [3], the λmax is 550 nm, the Initial color density was 1.13 and the T1/2 was 61 h. In data set [1], the λmax is reported as 545 nm, the Initial color density is recorded as 1.25% and the T1/2 was found to be 58 h.
In data set [3], `COC(=O)C(C)N1C(=O)C2=C(C3CC3)c3cc(-c4cccc(OC)c4)sc3C3(C4CC5CC(Cl)(C4)CC3(Cl)C5)C2C1=O` (stereo not drawn) [(35)] showed a λmax of 580 nm, an Initial color density of 0.67 and a T1/2 of 90 h. In addition, in data set [1], the λmax is 574 nm, the Initial color density worked out at 0.73% and the T1/2 is 85 h.
In data set [1], `CCn1c2c(c3ccccc31)C(C1CC1)=C1C(=O)OC(=O)C1C21C2CC3CC1CC(C)(C3)C2` (stereo not drawn) [(57)] showed a λmax of 559 nm, an Initial color density of 1.21% and a T1/2 of 55 h. The compound also registered a T1/2 in data set [2] (setting [4]) of 220 h.
Turning to `CCOC(=O)OCN1C(=O)C2=C(C3C(c4ccccc4)C3c3ccccc3)c3cc(-c4ccc(OC)cc4)sc3C3(C4CCCC3CCC4)C2C1=O` (stereo not drawn) [(31)], in data set [3], the λmax is reported as 616 nm, the Initial color density was 0.69 and the T1/2 was 86 h. In data set [1], this compound had a λmax of 624 nm, an Initial color density of 0.77% and a T1/2 of 81 h.
As for `O=C1OC(=O)C2C1=C(C1CC1)c1cc([N+](=O)[O-])sc1C21C2CC3CC(C2)CC1C3` (stereo not drawn) [(59)], in data set [1], the λmax came to 524 nm, the Initial color density is reported as 1.21% and the T1/2 worked out at 57 h. In data set [2] (setting [4]), this compound showed a T1/2 of 228 h.

Source of the values: US5708063A, “Photochromic compound” (Tokuyama Corporation, priority 1993, dated 1998).
